Assay type in all cases: in vivo
In one assay the test system is Cyperus serotinus. The assay can be described thus: Table 21 field trial, treatment at the 2 leaf stage: weed control. The following applies: 2.5 g of ai/ha, 28 days after application. From the text:
Field trial: Treatment at the 2 leaf stage, evaluation 28 days after the application.

The subject of the next assay is Sagittaria pygmaea. As to the kind of experiment: Table 22 field trial, treatment: 1-2 leaf stage: weed control. The following applies: 28 days after application. From the text: Field trial: Treatment: 1-2 leaf stage, evaluation 28 days after the application.
The next assay deals with Scirpus juncoides. As to the kind of experiment: Table 10 greenhouse trial, treatment at the 1-2 leaf stage: weed control. The following applies: 20 days after application. The procedure:
(§1) Seeds or rhizome pieces of mono- and dicotyledonous weed plants are placed into sandy loam soil in plastic pots, covered with soil and grown in a greenhouse under good growth conditions (temperature, atmospheric humidity, water supply). Weeds which are encountered in the cultivation of rice are cultivated in pots in which the water level is up to 2 cm over the soil surface. Three weeks after sowing, the test plants are treated at the three-leaf stage. The active compound combinations according to the invention, formulated as wettable powders or emulsion concentrates, and, in parallel experiments, the correspondingly formulated individual active compounds are sprayed onto the green parts of the plants at different dosages using an amount of water of 300 to 600 l/ha (converted), and, after about 3 to 4 weeks of the test plants in the greenhouse under optimum growth conditions (temperature, atmospheric humidity, water supply), the effect of the preparations is evaluated visually in comparison to untreated controls. In the case of rice or weeds which are encountered in the cultivation of rice, the active compounds are also added directly to the water for irrigation (application analogous to the so-called granules application) or sprayed onto plants and added to the water for irrigation. The experiments were designed with several, up to five, repetitions. The herbicidal compositions according to the invention also have good herbicidal post-emergence activity against a broad spectrum of economically important weed grasses and broad-leaved weeds.
Greenhouse trial: Treatment at the 1-2 leaf stage, evaluation 20 days after the application.

In the next assay the test system is Cyperus iria. As to the kind of experiment: Table 23 field trial, treatment: 4-6 leaf stage: weed control. To be noted: 36 days after application. From the text: Field trial: Treatment: 4-6 leaf stage, evaluation 36 days after the application.
In the next assay the test system is Echinochloa crusgalli. The assay can be described thus: Table 18 field trial, treatment at the 1-2 leaf stage: weed control. The following applies: 14 days after application. From the text:
Field trial: Treatment at the 1-2 leaf stage, evaluation 14 days after the application.

A further assay concerns Scirpus maritimus. The assay can be described thus: Table 15 greenhouse trial, treatment at the 2-3 leaf stage: weed control. The following applies: 20 days after application. How it is done: as §1

Counter-ions that a name gives are not always drawn.

As to `COC(=O)c1ccc(I)cc1S(=O)(=O)NC(=O)Nc1nc(C)nc(OC)n1` [A1*), Sodium salt of methyl 4-iodo-2-[3-(4-methoxy-6-methyl-1,3,5-triazin-2-yl)ureidosulfonyl]benzoate], in the assay with Cyperus serotinus, the CYPSE % control was 25%. For the same molecule, the SAGPY % control with Sagittaria pygmaea (2.5 g of ai/ha) is 20%; with Sagittaria pygmaea (5 g of ai/ha) it was 40%. Moreover, the SCIJU % control in the assay with Scirpus juncoides (1.5 g of ai/ha) and in the assay on Scirpus juncoides (3 g of ai/ha) was 40% throughout. Moreover, the CYPIR % control with Cyperus iria (0.62 g of ai/ha) is 53%; in the assay on Cyperus iria (1.25 g of ai/ha), 85%; in the assay on Cyperus iria (2.5 g of ai/ha) it was 98%. The ECHCG % control with Echinochloa crusgalli (1 g of ai/ha) is 5%; in the assay with Echinochloa crusgalli (2 g of ai/ha), 25%. In addition, the values for the SCIMA % control with Scirpus maritimus (1.25 g of ai/ha), in the assay on Scirpus maritimus (2.5 g of ai/ha) and in the assay with Scirpus maritimus (5 g of ai/ha) were 35%, 40% and 45%, respectively.

The values above are taken from US6864217B2, “Herbicidal compositions with substituted phenylsulfonylureas for controlling weeds in rice” (Hoechst Schering AgrEvo GmbH, priority 1998, dated 2005).
